Literature values in US12357650B2, “Methods and compositions for cancer therapies that include delivery of halogenated thymidines and thymidine phosphorlylase inhibitors in combination with radiation” (Shuttle Pharmaceuticals, Inc., priority 2017, dated 2025).

Test system: cells
Conditions: as compared to cells without the defective DNA; cited from earlier work

O=c1[nH]c(=O)n([C@H]2C[C@H](O)[C@@H](CO)O2)cc1Br [BUdR, 5-bromo-2′-deoxyuridine]
increase in susceptibility of cells to the lethal effects of RT: two-three fold
